PubChem BioAssay AID179 (DTP/NCI, 2004)
Values joined by “and” are separate entries in the source; they are usually repeats but may differ in a detail not shown here. Equal values may be shown once. Active and inactive are the calls of the source.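 How the source made its calls: active means compounds giving half or more protection of infected cells from virus-caused growth loss, again on retest; inactive means the rest.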

Tested on: CEM cells HIV-1 protection, formazan growth assay
Test: NCI AIDS Antiviral Assay
Settings: for IC50: measured here: growth of uninfected CEM cells
In short: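 Category rules: moderately active means at least 50% protection on retest, and confirmed active means 100% protection reproducibly. The underlying data came from a formazan growth assay in HIV-1-infected CEM cells.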

Structure (SMILES)	outcome	EC50	IC50
C[N+](C)(C)CCCC#CC[N+]1(C)CCc2ccccc2C1 (stereo not drawn)	inactive		
CN(C)NC1=NS(=O)(=O)c2cc3c(cc2S1)N(N(C)C)C(=O)c1cc2c(cc1N(N(C)C)C3=O)SC(NN(C)C)=NS2(=O)=O		> 200 µM	141 µM
NNc1nncc2n[nH]nc12		> 200 µM	> 200 µM
NC(CCSSCCC(N)C(=O)O)C(=O)O (stereo not drawn)		> 19.5 µM	> 19.5 µM
CCOC(=O)c1nc(SC)sc1NC(=O)c1ccc(Cl)cc1		> 200 µM	195 µM
Cc1nc(C)c(Cc2ccccc2)o1		> 200 µM	> 200 µM
CCC(NC(=O)c1ccccc1SC(=O)CCCC[n+]1ccccc1)C(N)=O (stereo not drawn)		> 3.8 µM	
Clc1ccc(SSc2ccc(Cl)cc2)cc1		> 200 µM	3.31 µM and 5.13 µM
Cc1cccc(N=Nc2c(C)nn(C(=O)CC(=O)Nc3ccccc3)c2C)c1		> 200 µM	> 200 µM
Cc1ccc(S(=O)(=O)NCCCSCCN)cc1		> 631 µM	562 µM
Cc1cc2c(c(=O)o1)C1=S(SC(c3ccccc3)=C1)S2 (stereo not drawn)		75.9 µM	> 200 µM
CC1(C)CC(=O)C2C(C1)Nc1ccccc1NC2c1ccccc1[N+](=O)[O-] (stereo not drawn)		> 61.7 µM	> 61.7 µM
CC(=O)c1sc2n(C)c(=O)c3ccccc3[n+]2c1C		> 200 µM	> 200 µM
CNc1ncnc2c1ncn2C1C=CC(COS(N)(=O)=O)C1 (stereo not drawn)		> 200 µM	> 200 µM
CN(C)c1ccc(N=Nc2ccc(/C=C/c3ccnc4ccccc34)cc2)cc1		> 19.1 µM	> 19.1 µM
O=C(Cc1ccccc1)NNc1nc(NNC(=O)c2ccncc2)nc(Nc2cccc(Cl)c2)n1		> 200 µM	> 200 µM
C=CCN(N=O)C(=O)NCCCCC(NC(C)=O)C(=O)NCc1ccccc1 (stereo not drawn)	inactive		
CC1(C)OC1COc1c2occc2cc2ccc(=O)oc12 (stereo not drawn)		> 155 µM	74.1 µM
CC1Oc2c(c(O)cc3oc(=O)cc(-c4ccccc4)c23)C(=O)C1C (stereo not drawn)	inactive		
C=C(C)C(O)C(OCC)c1c(OC)ccc2ccc(=O)oc12 (stereo not drawn)		> 200 µM	> 200 µM
c1ccc(N2N=NC3CCCC32)cc1 (stereo not drawn)		> 200 µM	95.5 µM
CCOc1ccc(NC(=O)C2=C(C)NC(C)=C(C(=O)Nc3ccc(OCC)cc3)C2c2ccccc2)cc1		> 36.3 µM	> 36.3 µM

Structure (SMILES)	outcome	EC50	IC50
COc1cc2c(oc(=O)c3c4occc4cc(OC)c23)c2cccc(O)c12		> 1.45 µM	> 1.45 µM
CSCCCNC(=O)c1csc(-c2csc(CCN)n2)n1		> 661 µM	85.1 µM
CN(/N=C/c1cccs1)c1ccc([N+](=O)[O-])cc1[N+](=O)[O-]		> 200 µM	107 µM
C[C@H]1CC[P+](C)(c2ccccc2)C1 (stereo partly drawn)		> 912 µM	> 912 µM
CC1CCc2c(sc3ncnc(N/N=C/c4ccc(Cl)c(Cl)c4)c23)C1 (stereo not drawn)		> 25.7 µM	> 25.7 µM
CCN(CC)C(=S)N/N=C/c1cc(OC)ccc1O		> 200 µM	10 µM
CC(C)c1ccc(/C(O)=C/C(=O)C(=O)/C=C(/O)c2ccc(C(C)C)cc2)cc1	inactive		
CN(C)C(=S)N/N=C(\C(=N/NC(=S)N(C)C)c1ccccn1)c1ccccn1		> 20 µM	1.1 µM
CC(C)=C1C(=O)N(c2ccccc2)N(c2ccccc2)C1=O		> 200 µM	79.4 µM
Cc1nn(C(=O)c2ccccc2O)c2c1C(c1ccc(O)cc1)SC(N)=N2 (stereo not drawn)		> 2 µM	0.129 µM
COc1ccc2c(O)c(-c3ccc(OC)c(OC)c3)c(=O)oc2c1	inactive		
CN1CCOC1(C)c1ccccc1 (stereo not drawn)		> 200 µM	> 200 µM
CCOP(=O)(OCC)/C(C#N)=C/c1cccc([N+](=O)[O-])c1		> 813 µM	166 µM
CCCCCC(C)SC1(C(=O)OC)CC(OC(C)=O)C(NC(C)=O)C([C@H](OC(C)=O)[C@@H](COC(C)=O)OC(C)=O)O1 (stereo partly drawn)		> 200 µM	63.1 µM
CCC1CCN=C(Cn2cc(C)c(=O)[nH]c2=O)N1 (stereo not drawn)		> 200 µM	> 200 µM
COc1ccc(NC(C)=O)cc1N1C(=O)/C(=C\c2cc(OC)c(OC)c(OC)c2)S(=O)(=O)C1c1ccccc1 (stereo not drawn)		> 200 µM	91.2 µM
Cc1ccc(C(=O)/C=C/c2ccc3c(c2)OCO3)cc1		> 19.5 µM	> 19.5 µM
CC(C)=CC(=O)CC(=O)C(=O)Nc1ccc(Cl)c(Cl)c1		> 417 µM	> 417 µM
COc1ccc(/C=N/n2cnc3c(c2=O)SC(=C(C#N)C#N)N3c2ccccc2)cc1		> 6.17 µM	> 6.17 µM
NC(=O)NO	inactive		112 µM
COc1ccc(-c2[nH]c(=O)n(C3OC(CO)C(O)C(O)C3O)c(=O)c2C#N)cc1 (stereo not drawn)		> 200 µM and 186 µM	> 200 µM
CS(=O)(=O)c1cc([N+](=O)[O-])c(C(N)=O)cc1N(CCCl)CCCl		> 200 µM	> 200 µM

Structure (SMILES)	outcome	EC50	IC50
NC(N)=N/N=C/c1c(-c2ccc(Cl)cc2)nc2sccn12		> 200 µM	3.39 µM
CN1C(=O)CCC2[C@@H]3CC=C4C[C@@H](O)CC[C@]4(C)C3CC[C@@]21C (stereo partly drawn)	inactive		
CCc1cccc(C(C)(C)C)c1NC(=S)NC=C(C#N)C#N		> 200 µM	145 µM
C=C1CC[C@@](C)(c2ccc(C)cc2)C1C (stereo partly drawn)	inactive		
NC(N)=NCCN1CC2CCC(CC2)C1		61.7 µM	151 µM
O=[N+]([O-])c1ccccc1S(=O)(=O)c1ccc(Cl)cc1		12.3 µM and 20.9 µM	50.1 µM and 81.3 µM
Cc1ccc(C(=O)Nc2ccc(CP(=O)(O)O)cc2)cc1NC(=O)c1cccc(NC(=O)Nc2cccc(C(=O)Nc3cc(C(=O)Nc4ccc(CP(=O)(O)O)cc4)ccc3C)c2)c1		16.6 µM	50.1 µM
COc1nc(N)c2c3c([nH]c2c1C#N)C(C)(C)c1ccccc1N3C		> 30.2 µM	29.5 µM
COc1cc2c(c(OC)c1OC)-c1ccc(SC)c(=O)cc1C(NC(=O)c1ccccc1)CC2 (stereo not drawn)		> 2 µM	0.000708 µM
Cc1cc(C)c2c(c1)CC2(Cl)Cl		> 178 µM	> 178 µM
COc1cc2c(cc1O)C(Cc1ccc(Oc3cc(C[C@H]4c5cc(OC)c(OC)cc5CCN4C)ccc3OC)cc1)N(C)CC2 (stereo partly drawn)	inactive		
CCCCCCCCCCCCCCNCC(OCC)OCC		> 200 µM	9.33 µM
Fc1nc(Sc2ncnc3nc[nH]c23)nc(-c2c3ccccc3c3sc4ccccc4n23)n1		> 200 µM	97.7 µM
CN(C)/N=N/c1nc2c(c(=O)n(C)c(=O)n2C)n1CC(O)CO (stereo not drawn)		> 200 µM	> 200 µM
CC(C)c1ccc(/C=C(\NC(=O)c2ccccc2)c2nc3ccccc3[nH]2)cc1		> 49 µM	> 49 µM
Cc1cc(N=Nc2ccccc2)ccc1NCS(=O)(=O)O		> 200 µM	117 µM
O=C(O)CCc1ccc(NC(=O)CN(CCO)CCO)cc1		> 200 µM	> 200 µM
CC#CCCC1CCCCN(C(=O)OC(C)(C)C)C1OCC (stereo not drawn)		> 115 µM	58.9 µM
CC1=C(C(=O)Nc2ccccc2C)C(/C=C/c2ccccc2)C(C(=O)Nc2ccccc2C)=C(C)N1	inactive		
C[C@]12OC(=O)[C@]3(O)CC[C@H]4[C@@H](C[C@@H](O)[C@@]5(Cl)CC=CC(=O)[C@]45C)[C@]45OCC6C(=O)O[C@@H]1C[C@@]6(C)[C@H](C4=O)[C@@]32O5 (stereo partly drawn)		> 2 µM	0.871 µM
